Laboratory results taken from patent US10738074B2, “Cyclic di-nucleotide compounds as STING agonists” (Merck Sharp & Dohme Corp., priority 2015, dated 2020).

Key:
full-length HAQ STING = full-length HAQ STING (Homo sapiens (Human), UniProt Q86WV6, G230A/H232R/R293Q/R71H); assay: 3H-cGAMP filtration binding assay (HAQ STING); details: competition with tritiated cGAMP, HAQ STING membrane
Excerpt: (§1) The ability of compounds to bind STING is quantified by the ability to compete with tritiated cGAMP ligand for human STING receptor membrane using a radioactive filter-binding assay. The binding assay employs STING receptor obtained from Hi-Five cell membranes overexpressing full-length HAQ STING prepared in-house and tritiated cGAMP ligand also purified in-house.
as §1, with “their” for “the”, “Trichoplusia ni” for “Hi-Five”, “membranes (Tni; Expression Systems, cat #94-002F, www.exrpressionsystems.com)” for “membranes”
The basic HAQ STING filtration assay protocol is as follows:
Compound and membrane then preincubated for 60 min at RT to allow compound binding to equilibrate. Following equilibration, 8 nM of [^3H] c-GAMP ligand was prepared by diluting into assay buffer, and 50 uL of this working stock was then manually added to each well of the assay plate. […] The filter plates were then dried at 55° C. for 30 min using a pressurized VWR oven before 30 uL of Ultima GoldF scintillate was added to each well. Tritium levels for each reaction well were then measured using a PerkinElmer TopCount plate reader.
After normalization to controls, the percent activity for each compound concentration was calculated by measuring the amount of remaining radioactivity. The plot of percent activity versus the log of compound concentration was fit with a 4-parameter dose response equation to calculate EC50 values.

THP1 cells = assay: IFN-β secretion in THP1 cell culture (5 h); format: cell-based, human; details: Homo sapiens, THP-1, 5 h, IFN-β secretion, THP1 cells, 5 h, 30 μM; read-out: % Effect at 30 μM relative to 2′3′-cGAMP
Experimental: The ability of compounds to stimulate the secretion of interferon-beta from THP1 cells was measured using a human IFN-β AlphaLISA kit (Perkin Elmer, Cat. No. AL265F). The basic protocol is as follows:
A Labcyte Echo 550 acoustic dispenser was used to transfer 120 nL of compound dissolved in DMSO into the wells of an empty, sterile 384-well microplate, (Corning, Cat. No. 3712). THP1 cells (American Type Culture Collection, Cat. No. TIB202) previously frozen in Recovery Medium (Life Technologies, Cat. No. 12648-010) were thawed and immediately diluted 10-fold into 37° C. assay medium (RPMI 1640+L-Glutamine & phenol red, Life Technologies, Cat. No. 11875-085; 0.5% heat inactivated fetal bovine serum, Sigma Aldrich, Cat. No. F4135; 1 mM Sodium Pyruvate, Life Technologies, Cat. No. 11360-070; lx non-essential amino acids; Life Technologies, Cat. No. 11140-050). The cell viability and count was ascertained using a Beckman Coulter V-Cell XR cell counter. The cells suspension was centrifuged at 200×g for 5 min at RT. Cells were resuspended to a density of 0.8×10^6/mL in 37° C. assay medium. Subsequent liquid transfers were performed using either a Matrix electronic multichannel pipette or an Agilent Bravo Automated Liquid Handling Platform.
The assay was started by dispensing 40 μL of the previously prepared cell suspension into the wells of the plate containing compounds. After 5 h incubation at 37° C., 5% CO2 in a humidified atmosphere, the plate of cells and compounds was centrifuged at 200×g for 5 min at RT. From each well, 5 μL of supernatant was transferred into corresponding wells of a white 384-well plate (Perkin Elmer, Cat. No. 6005620). To these supernatant-containing wells was added 10 μL of 5× Anti-Analyte Acceptor beads (50 μg/mL of AlphaLISA HiBlock Buffer) and incubated for 30 min at RT while shaking on an orbital plate shaker. To each well was added 10 μL of 5× Biotinylated Antibody Anti-analyte (5 nM in AlphaLISA HiBlock Buffer) and incubated on an orbital plate shaker for 60 min at RT or overnight at 4° C. To each well was added 25 μL of 2× SA-Donor beads (80 μg/mL in AlphaLISA HiBlock Buffer) and incubated for 30-45 min at RT in the dark while shaking on an orbital plate shaker. The plate was then read on a Perkin Elmer Envision (λex=680 nm, λem=[…]). The percent effect of the AlphaLISA signal at each compound concentration was calculated based on 30 uM cGAMP positive controls and 0.3% DMSO negative controls. The plot of percent effect versus the log of compound concentration was fit with a 4-parameter concentration response equation to calculate EC50 values. The test compounds were tested at concentrations 30000, 10000, 3333, 1111, 370.4, 123.4, 41.2, 13.7, 4.6, and 1.5 nM with 0.3% residual DMSO.
Compounds of the disclosure were evaluated for IFN-β secretion in THP1 cell culture as described above. The following table tabulates the biological data for these compounds as percent activation relative to 2′3′-cGAMP at the 30 μM concentration.

Chain of full-length HAQ STING (Q86WV6 other isoform, or with tags, fused parts or gaps, stated change not applied): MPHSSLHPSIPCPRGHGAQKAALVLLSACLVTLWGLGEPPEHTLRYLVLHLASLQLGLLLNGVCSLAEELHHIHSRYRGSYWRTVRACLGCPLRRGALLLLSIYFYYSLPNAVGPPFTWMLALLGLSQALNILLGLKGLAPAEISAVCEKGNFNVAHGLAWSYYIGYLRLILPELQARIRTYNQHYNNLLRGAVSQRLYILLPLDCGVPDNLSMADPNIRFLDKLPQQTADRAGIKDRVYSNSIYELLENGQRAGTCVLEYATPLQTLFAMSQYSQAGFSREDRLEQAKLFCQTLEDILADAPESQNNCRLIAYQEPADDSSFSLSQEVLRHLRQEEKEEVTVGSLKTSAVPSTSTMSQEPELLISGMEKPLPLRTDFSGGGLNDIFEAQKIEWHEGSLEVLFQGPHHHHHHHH

Compound | EC50 (full-length HAQ STING) [nM] | activation at 30 µM (THP1 cells) [%]
C[C@@H]1OP(=O)(O)O[C@@H]2[C@H](F)[C@@H](COP(=O)(O)O[C@@H]3[C@H](O)[C@@H]1O[C@H]3n1cnc3c(N)ncnc31)O[C@H]2n1cnc2c(=O)[nH]c(N)nc21 [Example 8, 2-amino-9-[(1R,6R,8R,9S,13S,14S,16R,17R,18R)-16-(6-amino-9H-purin-9-yl)-18-fluoro-3,11,17-trihydroxy-13-methyl-3,11-dioxido-2,4,7,10,12,15-hexaoxa-3,11-diphosphatricyclo[12.2.1.16,9]octadec-8-yl]-1,9-dihydro-6H-purin-6-one] | 102 | 36
Nc1nc2c(ncn2[C@@H]2O[C@@H]3COP(=O)(O)O[C@@H]4C[C@@H](COP(=O)(O)O[C@@H]2[C@@H]3F)O[C@H]4n2cnc3c(N)ncnc32)c(=O)[nH]1 [Example 9, 2-amino-9-[(1R,6R,8R,9S,14S,16R,18R)-16-(6-amino-9H-purin-9-yl)-18-fluoro-3,11-dihydroxy-3,11-dioxido-2,4,7,10,12,15-hexaoxa-3,11-diphosphatricyclo[12.2.1.1^6,9]octadec-8-yl]-1,9-dihydro-6H-purin-6-one] | 3.7 | 115
Nc1nc2c(ncn2[C@@H]2O[C@@H]3COP(=O)(O)O[C@@H]4[C@H](F)[C@@H](COP(=O)(O)O[C@@H]2[C@@H]3F)O[C@H]4n2cnc3c(N)ncnc32)c(=O)[nH]1 [Example 11, 2-amino-9-[(1S,6R,8R,9S,14R,16R,17R,18R)-16-(6-amino-9H-purin-9-yl)-17,18-difluoro-3,11-dihydroxy-3,11-dioxido-2,4,7,10,12,15-hexaoxa-3,11-diphosphatricyclo[12.2.1.1^6,9]octadec-8-yl]-1,9-dihydro-6H-purin-6-one] | < 1 | 131
Nc1nc2c(ncn2[C@@H]2O[C@@H]3COP(=O)(O)O[C@@H]4C[C@@H](COP(=O)(O)O[C@@H]2C3)O[C@H]4n2cnc3c(N)ncnc32)c(=O)[nH]1 [Example 12, 2-amino-9-[(1R,6S,8R,9R,14S,16R)-16-(6-amino-9H-purin-9-yl)-3,11-dihydroxy-3,11-dioxido-2,4,7,10,12,15-hexaoxa-3,11-diphosphatricyclo[12.2.1.1^6,9]octadec-8-yl]-1,9-dihydro-6H-purin-6-one] | 674 | 50
Nc1nc2c(ncn2[C@@H]2O[C@@H]3COP(=O)(O)O[C@@H]4[C@@H](F)[C@@H](COP(=O)(O)O[C@@H]2[C@@H]3F)O[C@H]4n2cnc3c(N)ncnc32)c(=O)[nH]1 [Example 13, 2-amino-9-[(1S,6R,8R,9S,14R,16R,17S,18R)-16-(6-amino-9H-purin-9-yl)-17,18-difluoro-3,11-dihydroxy-3,11-dioxido-2,4,7,10,12,15-hexaoxa-3,11-diphosphatricyclo[12.2.1.1^6,9]octadec-8-yl]-1,9-dihydro-6H-purin-6-one] | 11.2 | 128
Nc1ncnc2c1ncn2[C@@H]1O[C@@H]2COP(=O)(S)O[C@@H]3[C@H](O)[C@@H](COP(=O)(S)O[C@@H]1[C@@H]2O)O[C@H]3n1cnc2c(N)ncnc21 (stereo partly drawn) [Example 27, (1R,6R,8R,9R,14R,16R,17R,18R)-8,16-bis(6-amino-9H-purin-9-yl)-3,11-disulfanyl-2,4,7,10,12,15-hexaoxa-3,11-diphosphatricyclo[12.2.1.1^6,9]octadecane-17,18-diol 3,11-dioxide] | 6.6 | 76
Nc1nc2c(ncn2[C@@H]2O[C@@H]3COP(=O)(O)O[C@@H]4[C@H](N)[C@@H](COP(=O)(O)O[C@@H]2[C@@H]3O)O[C@H]4n2cnc3c(N)ncnc32)c(=O)[nH]1 [Example 33, 2-amino-9-[(1R,6R,8R,9R,14S,16R,17R,18R)-17-amino-16-(6-amino-9H-purin-9-yl)-3,11,18-trihydroxy-3,11-dioxido-2,4,7,10,12,15-hexaoxa-3,11-diphosphatricyclo[12.2.1.1^6,9]octadec-8-yl]-1,9-dihydro-6H-purin-6-one] | 1.6 | 140
